These compounds were tested against MYT1 protein (Homo sapiens (Human), UniProt Q99640) (assay: Test for binding to ATP binding site of MYT1 (Kinase Tracer 178 / Eu-Anti-GST antibody TR-FRET)). Settings: ATP binding site of MYT1, 30 minutes at room temperature.
Procedure: The binding capacity of each compound to the ATP binding site of MYT1 Kinase protein was evaluated. 5× Kinase Buffer A (manufactured by Thermo Fisher Scientific Inc., PV3189) was diluted to 5 times with Milli-Q water, thereby preparing 1× Kinase Buffer. Using 1× Kinase Buffer, MYT1 protein (manufactured by Carna Biosciences, Inc.) was diluted to a concentration of 0.005 μM and Eu-Anti-GST Antibody was diluted to a concentration of 1 μM. […] To a 96 well-plate, 2.5 μL of a compound diluted with DMSO was added. […] The mixture was well mixed and then allowed to stand at room temperature for 30 minutes. Thereafter, fluorescence wavelengths of 665 nm and 615 nm generated by irradiation with excitation light of 340 nm were detected using Envision (manufactured by PerkinElmer). The proportion of Tracer bound to MYT1 protein was calculated for every condition by dividing the intensity at the fluorescence wavelength of 665 nm by the intensity at the fluorescence wavelength of 615 nm.

Chain of MYT1 protein (Q99640 whole entry): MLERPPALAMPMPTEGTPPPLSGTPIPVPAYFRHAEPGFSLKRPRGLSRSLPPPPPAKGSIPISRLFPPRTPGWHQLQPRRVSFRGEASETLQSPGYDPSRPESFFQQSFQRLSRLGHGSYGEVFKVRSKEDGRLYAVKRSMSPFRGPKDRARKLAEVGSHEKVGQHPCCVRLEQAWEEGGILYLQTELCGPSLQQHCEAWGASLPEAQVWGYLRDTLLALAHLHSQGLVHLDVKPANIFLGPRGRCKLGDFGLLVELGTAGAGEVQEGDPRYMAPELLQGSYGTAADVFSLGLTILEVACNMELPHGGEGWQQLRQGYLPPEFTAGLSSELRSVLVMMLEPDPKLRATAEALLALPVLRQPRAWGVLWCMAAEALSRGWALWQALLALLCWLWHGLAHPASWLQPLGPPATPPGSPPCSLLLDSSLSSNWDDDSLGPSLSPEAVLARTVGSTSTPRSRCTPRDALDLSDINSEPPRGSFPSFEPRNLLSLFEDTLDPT

Q: How did the IC50 turn out when `Nc1c(-c2ccc(Cl)c3[nH]ncc23)c2cc(C(=O)N3CCOCC3)ccc2[nH]c1=O` [Compound A38, 3-Amino-4-(7-chloro-1H-indazol-4-yl)-6-(morpholine-4-carbonyl)-1H-quinolin-2-one] was run?
A: 0.02 µM

Q: How did the IC50 turn out when `CN1CC(c2ccc3[nH]c(=O)c(N)c(-c4ccc(Cl)c5[nH]ncc45)c3c2)C1` [Compound A39, 3-Amino-4-(7-chloro-1H-indazol-4-yl)-6-(1-methylazetidin-3-yl)-1H-quinolin-2-one] was run?
A: 0.023 µM

Q: For `Nc1c(-c2ccc(Cl)c3[nH]ncc23)c2ccc(Cl)cc2[nH]c1=O` [Compound A40, 3-Amino-7-chloro-4-(7-chloro-1H-indazol-4-yl)-1H-quinolin-2-one], which IC50 is on record?
A: 0.0086 µM

Q: Which IC50 does the source give for `COc1cccc(-c2c(N)c(=O)[nH]c3ccc(Cl)cc23)c1` [Compound A42, 3-Amino-6-chloro-4-(3-methoxyphenyl)-1H-quinolin-2-one] here?
A: 0.45 µM

Q: For `Nc1c(-c2cccc3[nH]ncc23)c2cc(Cl)ccc2[nH]c1=O` [Compound A43, 3-Amino-6-chloro-4-(1H-indazol-4-yl)-1H-quinolin-2-one], which IC50 is on record?
A: 0.048 µM

Q: `Nc1c(-c2ccncc2)c2cc(Cl)ccc2[nH]c1=O` [Compound A44, 3-Amino-6-chloro-4-pyridin-4-yl-1H-quinolin-2-one] was tested. Which IC50 did it give?
A: 5 µM

Q: With `Nc1c(-c2cccnc2)c2cc(Cl)ccc2[nH]c1=O` [Compound A45, 3-Amino-6-chloro-4-pyridin-3-yl-1H-quinolin-2-one] as the compound, how does the IC50 read?
A: 5 µM

Q: `CS(=O)(=O)Nc1cccc(-c2c(N)c(=O)[nH]c3ccc(Cl)cc23)c1` [Compound A46, N-[3-(3-amino-6-chloro-2-oxo-1H-quinolin-4-yl)phenyl]methanesulfonamide] was tested. Which IC50 did it give?
A: 5.9 µM

Q: With `Nc1cc(-c2c(N)c(=O)[nH]c3ccc(Cl)cc23)ccn1` [Compound A47, 3-Amino-4-(2-aminopyridin-4-yl)-6-chloro-1H-quinolin-2-one] as the compound, how does the IC50 read?
A: 3.3 µM

Q: How did the IC50 turn out when `Nc1c(-c2ccc3nc[nH]c3c2)c2cc(Cl)ccc2[nH]c1=O` [Compound A48, 3-Amino-4-(3H-benzimidazol-5-yl)-6-chloro-1H-quinolin-2-one] was run?
A: 5.3 µM

Q: Which IC50 does the source give for `Nc1c(-c2ccc3cn[nH]c3c2)c2cc(Cl)ccc2[nH]c1=O` [Compound A49, 3-Amino-6-chloro-4-(1H-indazol-6-yl)-1H-quinolin-2-one] here?
A: 0.79 µM

Q: With `Nc1c(-c2cccc(OC(F)F)c2)c2cc(Cl)ccc2[nH]c1=O` [Compound A50, 3-Amino-6-chloro-4-[3-(difluoromethoxy)phenyl]-1H-quinolin-2-one] as the compound, how does the IC50 read?
A: 5.8 µM

Q: `Nc1c(-c2cccc(C(F)F)c2)c2cc(Cl)ccc2[nH]c1=O` [Compound A51, 3-Amino-6-chloro-4-[3-(difluoromethyl)phenyl]-1H-quinolin-2-one] was tested. Which IC50 did it give?
A: 2.7 µM

Q: How did the IC50 turn out when `Cn1ccc(-c2c(N)c(=O)[nH]c3ccc(Cl)cc23)cc1=O` [Compound A52, 3-Amino-6-chloro-4-(1-methyl-2-oxopyridin-4-yl)-1H-quinolin-2-one] was run?
A: 4.4 µM

Q: Which IC50 does the source give for `Nc1c(-c2cccc3[nH]ccc23)c2cc(Cl)ccc2[nH]c1=O` [Compound A53, 3-Amino-6-chloro-4-(1H-indol-4-yl)-1H-quinolin-2-one] here?
A: 0.98 µM

Q: How did the IC50 turn out when `Cc1cc(-c2c(N)c(=O)[nH]c3ccc(Cl)cc23)c2cn[nH]c2c1` [Compound A55, 3-Amino-6-chloro-4-(6-methyl-1H-indazol-4-yl)-1H-quinolin-2-one] was run?
A: 0.48 µM

Q: How did the IC50 turn out when `Nc1c(-c2cc(Cl)cc3[nH]ncc23)c2cc(Cl)ccc2[nH]c1=O` [Compound A58, 3-Amino-6-chloro-4-(6-chloro-1H-indazol-4-yl)-1H-quinolin-2-one] was run?
A: 0.36 µM

Q: How did the IC50 turn out when `Cc1n[nH]c2cccc(-c3c(N)c(=O)[nH]c4ccc(Cl)cc34)c12` [Compound A62, 3-Amino-6-chloro-4-(3-methyl-1H-indazol-4-yl)-1H-quinolin-2-one] was run?
A: 3.9 µM

Q: Which IC50 does the source give for `Cc1ccc2[nH]ncc2c1-c1c(N)c(=O)[nH]c2ccc(Cl)cc12` [Compound A63, 3-Amino-6-chloro-4-(5-methyl-1H-indazol-4-yl)-1H-quinolin-2-one] here?
A: 0.71 µM

Q: Which IC50 does the source give for `Nc1c(-c2cccc(O)c2)c2cc(C3CC3)ccc2[nH]c1=O` [Compound A65, 3-Amino-6-cyclopropyl-4-(3-hydroxyphenyl)-1H-quinolin-2-one] here?
A: 0.19 µM

Q: For `Nc1c(-c2cccc(O)c2)c2ccccc2[nH]c1=O` [Compound A66, 3-Amino-4-(3-hydroxyphenyl)-1H-quinolin-2-one], which IC50 is on record?
A: 0.38 µM

Q: For `Nc1c(-c2c(F)ccc3[nH]ncc23)c2cc(Cl)ccc2[nH]c1=O` [Compound A67, 3-Amino-6-chloro-4-(5-fluoro-1H-indazol-4-yl)-1H-quinolin-2-one], which IC50 is on record?
A: 0.13 µM

Q: `Nc1c(-c2cc[nH]c(=O)c2)c2cc(Cl)ccc2[nH]c1=O` [Compound A68, 3-Amino-6-chloro-4-(2-oxo-1H-pyridin-4-yl)-1H-quinolin-2-one] was tested. Which IC50 did it give?
A: 8 µM

Q: For `Nc1nccc(-c2c(N)c(=O)[nH]c3ccc(Cl)cc23)n1` [Compound A69, 3-Amino-4-(2-aminopyrimidin-4-yl)-6-chloro-1H-quinolin-2-one], which IC50 is on record?
A: 2.5 µM

Q: How did the IC50 turn out when `Nc1c(-c2ccccc2)c2ccccc2[nH]c1=O` [Compound A70, 3-Amino-4-phenyl-1H-quinolin-2-one] was run?
A: 6.2 µM

Q: Which IC50 does the source give for `Nc1c(N2CCCC(CO)C2)c2cc(Br)ccc2[nH]c1=O` (centres unmarked) [Compound A71, 3-Amino-6-bromo-4-[3-(hydroxymethyl)piperidin-1-yl]-1H-quinolin-2-one 2,2,2-trifluoroacetate] here?
A: 1.4 µM

Q: Which IC50 does the source give for `Nc1c(-c2ccc(Cl)c3[nH]ncc23)c2cc(OCC3(F)CC3)c(F)cc2[nH]c1=O` [Compound A72, 3-Amino-4-(7-chloro-1H-indazol-4-yl)-7-fluoro-6-[(1-fluorocyclopropyl)methoxy]-1H-quinolin-2-one] here?
A: 0.096 µM

Q: With `COc1cccc(-c2c(N)c(=O)[nH]c3c2ccc2ccccc23)c1` [Compound B1, 3-Amino-4-(3-methoxyphenyl)-1H-benzo[h]quinolin-2-one] as the compound, how does the IC50 read?
A: 5.6 µM

Q: How did the IC50 turn out when `Nc1c(-c2cccc(O)c2)c2cc(Br)c3ccccc3c2[nH]c1=O` [Compound B4, 3-Amino-6-bromo-4-(3-hydroxyphenyl)-1H-benzo[h]quinolin-2-one] was run?
A: 0.027 µM

Q: How did the IC50 turn out when `Nc1c(-c2cccc(O)c2)c2cc(-c3ccccc3)c3ccccc3c2[nH]c1=O` [Compound B5, 3-Amino-4-(3-hydroxyphenyl)-6-phenyl-1H-benzo[h]quinolin-2-one] was run?
A: 0.42 µM

Q: Which IC50 does the source give for `Cc1cc2c(-c3cccc(O)c3)c(N)c(=O)[nH]c2c2ccccc12` [Compound B6, 3-Amino-4-(3-hydroxyphenyl)-6-methyl-1H-benzo[h]quinolin-2-one] here?
A: 0.007 µM

Q: With `Nc1c(-c2cccc(O)c2)c2cc(Cl)c3ccccc3c2[nH]c1=O` [Compound B8, 3-Amino-6-chloro-4-(3-hydroxyphenyl)-1H-benzo[h]quinolin-2-one] as the compound, how does the IC50 read?
A: 0.012 µM

Q: How did the IC50 turn out when `Nc1c(-c2ccc(F)c3[nH]ncc23)c2cc(I)c3ccc(Cl)cc3c2[nH]c1=O` [Compound B9, 3-Amino-9-chloro-4-(7-fluoro-1H-indazol-4-yl)-6-iodo-1H-benzo[h]quinolin-2-one] was run?
A: 0.12 µM

Q: For `Nc1c(-c2ccc(F)c3[nH]ncc23)c2cc(C3CC3)c3ccc(Cl)cc3c2[nH]c1=O` [Compound B10, 3-Amino-9-chloro-6-cyclopropyl-4-(7-fluoro-1H-indazol-4-yl)-1H-benzo[h]quinolin-2-one], which IC50 is on record?
A: 0.036 µM

Q: For `Nc1c(-c2ccc(F)c3[nH]ncc23)c2ccc3ccc(Cl)cc3c2[nH]c1=O` [Compound B11, 3-Amino-9-chloro-4-(7-fluoro-1H-indazol-4-yl)-1H-benzo[h]quinolin-2-one], which IC50 is on record?
A: 0.03 µM

— patent US20260062412A1, “NITROGEN-CONTAINING HETEROCYCLIC COMPOUND HAVING MYT1 INHIBITORY ACTIVITY” (CHUGAI SEIYAKU KABUSHIKI KAISHA, priority 2023, published 2026)
